Values quoted from earlier work as cited in patent US7897615B2 (Chugai Sciyaku Kabushiki Kaisha, priority 2003, dated 2011).
pIC50: −log10 of the molar value.

Tests used:
[1] = test system: CPT-I muscle (M) isoform; conditions: muscle isoform of CPT-I
[2] = test system: human breast cancer cells

Row | SMILES | pIC50 [1] | antitumor activity [2] | malonyl-CoA level ([2]; breast carcinoma cells)
1 | CC(C)(COP(=O)(O)OP(=O)(O)OC[C@H]1O[C@@H](n2cnc3c(N)ncnc32)[C@H](O)[C@@H]1OP(=O)(O)O)[C@@H](O)C(=O)NCCC(=O)NCCSC(=O)CC(=O)O [Malonyl-CoA] | 7.52 |  | 
2 | CCCCCCCCCCCCCCOc1ccc(C(=O)O)o1 [TOFA, 5-(tetradecyloxy)-2-furoic acid] |  | does not show any antitumor activity | 60 % of the control
